# Assay results from ChEMBL document CHEMBL1149946, “The conformation of cyclosporin a bound to cyclophilin is altered (once again) following binding to calcineurin: an analysis of receptor-ligand-receptor interactions” (Bioorg Med Chem Lett, 1992).
# Assay: Compound was evaluated for its binding affinity towards cyclophilin (Cyp)
row,Kd [nM],Structure (SMILES)
1,500,C/C=C/CC(C)(C)[C@@H](O)[C@H]1C(=O)N[C@@H](CC)C(=O)N(C)CC(=O)N(C)[C@@H](CC(C)C)C(=O)N[C@@H](C(C)C)C(=O)N(C)[C@@H](CC(C)C)C(=O)N[C@@H](C)C(=O)N[C@@H](C)C(=O)N(C)[C@@H](CC(C)C)C(=O)N(C)[C@@H](CC(C)C)C(=O)N(C)[C@@H](C(C)C)C(=O)N1C
2,13,C/C=C/C[C@@H](C)[C@H](O)[C@H]1C(=O)N[C@@H](CC)C(=O)N(C)CC(=O)N(C)[C@@H](CC(C)C)C(=O)N[C@H](C(C)C)C(=O)N(C)CC(=O)N[C@@H](C)C(=O)N[C@H](C)C(=O)N(C)[C@H](CC(C)C)C(=O)N(C)[C@H](CC(C)C)C(=O)N(C)[C@H](C(C)C)C(=O)N1C
